Data as given in ChEMBL document CHEMBL1201862, “PubChem BioAssay data set” (2004).
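Cultured in 96-well plates, cells were exposed to test compound for 48 hours across five concentrations. GI50 = concentration required for 50% inhibition of growth.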 Calls of active or inactive are those of the source. Cut-off read from the data, not from the text of the source: active = GI50 up to about 1.1 µM and inactive = higher.

Key:
Experiment in all cases: inhibition of tumour cell growth, NCI panel, 48 h
HCC 2998 = test system: HCC 2998
UO-31 = test system: UO-31
UACC-257 = test system: UACC-257
786-0 = test system: 786-0
T47D = test system: T47D
CAKI-1 = test system: CAKI-1
NCI-H460 = test system: NCI-H460
OVCAR-4 = test system: OVCAR-4
OVCAR-5 = test system: OVCAR-5
COLO 205 = test system: COLO 205
RPMI-8226 = test system: RPMI-8226
IGROV-1 = test system: IGROV-1
Hs-578T = test system: Hs-578T
SK-OV-3 = test system: SK-OV-3
SNB-19 = test system: SNB-19
MCF7 = test system: MCF7
HL-60 = test system: HL-60
HCT-15 = test system: HCT-15
SW-620 = test system: SW-620
EKVX = test system: EKVX
CCRF-CEM = test system: CCRF-CEM
SNB-75 = test system: SNB-75
SF-539 = test system: SF-539
DU-145 = test system: DU-145
NCI-H226 = test system: NCI-H226
SF-268 = test system: SF-268
U-251 = test system: U-251
A549 = test system: A549
RXF 393 = test system: RXF 393
HT-29 = test system: HT-29
OVCAR-3 = test system: OVCAR-3
MOLT-4 = test system: MOLT-4
Malme-3M = test system: Malme-3M
SK-MEL-5 = test system: SK-MEL-5
PC-3 = test system: PC-3
SR = test system: SR
MDA-MB-231 = test system: MDA-MB-231
LOX IMVI = test system: LOX IMVI
NCI-H23 = test system: NCI-H23
SK-MEL-2 = test system: SK-MEL-2
NCI-H522 = test system: NCI-H522
SN12C = test system: SN12C
MDA-MB-435 = test system: MDA-MB-435
M14 = test system: M14
TK-10 = test system: TK-10
A498 = test system: A498
BT-549 = test system: BT-549
SK-MEL-28 = test system: SK-MEL-28
MDA-N = test system: MDA-N
UACC-62 = test system: UACC-62
HCT-116 = test system: HCT-116
KM12 = test system: KM12
NCI/ADR-RES = test system: NCI/ADR-RES
OVCAR-8 = test system: OVCAR-8
K562 = test system: K562
HOP-62 = test system: HOP-62
SF-295 = test system: SF-295
HOP-92 = test system: HOP-92
ACHN = test system: ACHN

Measured: GI50

Cc1ccc(-n2c(O)c(C#N)c3[nH]nc(N)c3c2=O)cc1
inactive: HCC 2998 > 100 µM | UO-31 > 100 µM | UACC-257 > 100 µM | 786-0 > 100 µM | T47D > 100 µM | CAKI-1 > 100 µM | NCI-H460 > 100 µM | OVCAR-4 > 100 µM | OVCAR-5 > 100 µM | COLO 205 > 100 µM | RPMI-8226 > 100 µM | IGROV-1 > 100 µM | Hs-578T > 100 µM | SK-OV-3 > 100 µM | SNB-19 > 100 µM | MCF7 > 100 µM | HL-60 > 100 µM | SW-620 > 100 µM | EKVX > 100 µM | CCRF-CEM > 100 µM | SNB-75 > 100 µM | SF-539 > 100 µM | DU-145 > 100 µM | NCI-H226 > 100 µM | SF-268 > 100 µM | U-251 > 100 µM | A549 > 100 µM | RXF 393 > 100 µM | HT-29 > 100 µM | OVCAR-3 > 100 µM | MOLT-4 > 100 µM | Malme-3M > 100 µM | SK-MEL-5 > 100 µM | PC-3 > 100 µM | SR > 100 µM | MDA-MB-231 > 100 µM | LOX IMVI > 100 µM | NCI-H23 > 100 µM | SK-MEL-2 > 100 µM | NCI-H522 > 100 µM | SN12C > 100 µM | MDA-MB-435 > 100 µM | M14 > 100 µM | TK-10 > 100 µM | A498 > 100 µM | BT-549 > 100 µM | SK-MEL-28 > 100 µM | MDA-N > 100 µM | UACC-62 > 100 µM | HCT-116 > 100 µM | KM12 > 100 µM | NCI/ADR-RES > 100 µM | OVCAR-8 > 100 µM | K562 > 100 µM
> 100 µM: HCT-15

O=C1CCCCN1C(=O)c1ccc([N+](=O)[O-])cc1
inactive: HCC 2998 > 100 µM | UO-31 > 100 µM | UACC-257 > 100 µM | 786-0 > 100 µM | T47D > 100 µM | CAKI-1 > 100 µM | NCI-H460 > 100 µM | OVCAR-4 > 100 µM | OVCAR-5 > 100 µM | RPMI-8226 > 100 µM | IGROV-1 > 100 µM | Hs-578T > 100 µM | SNB-19 > 100 µM | MCF7 > 100 µM | HOP-62 > 100 µM | HL-60 > 100 µM | SW-620 > 100 µM | EKVX > 100 µM | CCRF-CEM > 100 µM | SF-295 > 100 µM | SNB-75 > 100 µM | HOP-92 > 100 µM | SF-539 > 100 µM | DU-145 > 100 µM | NCI-H226 > 100 µM | SF-268 > 100 µM | U-251 > 100 µM | A549 > 100 µM | RXF 393 > 100 µM | HT-29 > 100 µM | OVCAR-3 > 100 µM | MOLT-4 > 100 µM | Malme-3M > 100 µM | SK-MEL-5 > 100 µM | PC-3 44.3 µM | SR > 100 µM | MDA-MB-231 > 100 µM | LOX IMVI > 100 µM | NCI-H23 > 100 µM | ACHN > 100 µM | NCI-H522 > 100 µM | SN12C 24 µM | MDA-MB-435 > 100 µM | M14 > 100 µM | TK-10 > 100 µM | A498 > 100 µM | BT-549 > 100 µM | SK-MEL-28 > 100 µM | MDA-N 57.7 µM | UACC-62 37.3 µM | HCT-116 > 100 µM | KM12 > 100 µM | NCI/ADR-RES > 100 µM | OVCAR-8 > 100 µM | K562 > 100 µM
> 100 µM: HCT-15

CCOC(=O)c1c2ccccc2n2c(=O)n(-c3ccc(OC)cc3)nnc12
inactive: HCC 2998 > 100 µM | UO-31 29.4 µM | UACC-257 60.5 µM | 786-0 17 µM | T47D 24.3 µM | CAKI-1 > 45.7 µM | NCI-H460 > 95.1 µM | OVCAR-4 22.5 µM | OVCAR-5 46.1 µM | COLO 205 > 100 µM | RPMI-8226 25.1 µM | IGROV-1 17.5 µM | Hs-578T 19.9 µM | SK-OV-3 26.7 µM | SNB-19 34.2 µM | HOP-62 21.1 µM | HL-60 21.1 µM | SW-620 > 42.4 µM | EKVX 32.1 µM | SF-295 20.3 µM | SNB-75 14.5 µM | HOP-92 21.7 µM | SF-539 19.5 µM | DU-145 75.2 µM | NCI-H226 23.3 µM | SF-268 16.2 µM | U-251 16.9 µM | A549 46.5 µM | RXF 393 19 µM | OVCAR-3 34.4 µM | Malme-3M 30.5 µM | SK-MEL-5 58.5 µM | PC-3 18.2 µM | SR 38.7 µM | MDA-MB-231 > 45.5 µM | LOX IMVI 17.3 µM | NCI-H23 34.4 µM | SK-MEL-2 22.8 µM | ACHN 31.1 µM | SN12C > 83.8 µM | MDA-MB-435 > 37.1 µM | M14 51.1 µM | TK-10 46.6 µM | A498 44.3 µM | BT-549 26.5 µM | SK-MEL-28 65.6 µM | MDA-N > 100 µM | UACC-62 11.2 µM | HCT-116 54.8 µM | KM12 88.1 µM | NCI/ADR-RES 31 µM | OVCAR-8 20.6 µM | K562 25.9 µM
active: MCF7 0.555 µM
> 58.6 µM: HCT-15

c1ccc(NNN2NC(c3ccccc3)C2c2ccccc2)cc1 (configuration not stated)
> 100 µM: HCT-15
inactive: HCC 2998 > 100 µM | UO-31 36.6 µM | UACC-257 87.9 µM | 786-0 > 100 µM | T47D > 100 µM | CAKI-1 > 100 µM | NCI-H460 72.4 µM | OVCAR-4 86.1 µM | OVCAR-5 > 100 µM | COLO 205 > 100 µM | RPMI-8226 > 100 µM | Hs-578T > 100 µM | SK-OV-3 > 100 µM | SNB-19 > 100 µM | MCF7 98.2 µM | HL-60 49.5 µM | SW-620 > 100 µM | EKVX > 100 µM | CCRF-CEM 59.6 µM | SF-295 > 100 µM | SNB-75 > 100 µM | HOP-92 > 100 µM | SF-539 > 100 µM | DU-145 > 100 µM | NCI-H226 > 100 µM | SF-268 > 100 µM | U-251 > 100 µM | A549 60 µM | RXF 393 24.3 µM | HT-29 > 100 µM | OVCAR-3 > 100 µM | MOLT-4 55 µM | Malme-3M 28.9 µM | SK-MEL-5 > 100 µM | PC-3 > 100 µM | SR > 100 µM | MDA-MB-231 > 100 µM | LOX IMVI > 100 µM | NCI-H23 92.3 µM | SK-MEL-2 > 100 µM | ACHN > 100 µM | NCI-H522 71.9 µM | SN12C > 100 µM | MDA-MB-435 > 100 µM | M14 > 100 µM | TK-10 > 100 µM | A498 > 100 µM | BT-549 > 100 µM | SK-MEL-28 > 100 µM | MDA-N > 100 µM | UACC-62 > 100 µM | HCT-116 79.4 µM | KM12 > 100 µM | NCI/ADR-RES 97.3 µM | OVCAR-8 > 100 µM | K562 91.8 µM

O=C(NCCN(CCNC(=O)c1cccc(=O)n1O)CCNC(=O)c1cccc(=O)n1O)c1cccc(=O)n1O
> 100 µM: HCT-15
inactive: HCC 2998 > 100 µM | UO-31 > 100 µM | UACC-257 > 100 µM | T47D > 100 µM | CAKI-1 > 100 µM | NCI-H460 > 100 µM | OVCAR-4 > 100 µM | OVCAR-5 > 100 µM | COLO 205 > 100 µM | RPMI-8226 > 100 µM | IGROV-1 > 100 µM | Hs-578T > 100 µM | SK-OV-3 > 100 µM | SNB-19 > 100 µM | MCF7 > 100 µM | HOP-62 > 100 µM | HL-60 > 100 µM | SW-620 > 100 µM | CCRF-CEM > 100 µM | SF-295 > 100 µM | SNB-75 > 100 µM | HOP-92 > 100 µM | SF-539 > 100 µM | DU-145 > 100 µM | NCI-H226 > 100 µM | SF-268 > 100 µM | U-251 > 100 µM | A549 > 100 µM | RXF 393 > 100 µM | HT-29 > 100 µM | OVCAR-3 > 100 µM | Malme-3M > 100 µM | SK-MEL-5 > 100 µM | PC-3 > 100 µM | SR > 100 µM | MDA-MB-231 > 100 µM | NCI-H23 > 100 µM | SK-MEL-2 > 100 µM | ACHN > 100 µM | NCI-H522 > 100 µM | SN12C > 100 µM | MDA-MB-435 > 100 µM | M14 > 100 µM | TK-10 > 100 µM | A498 > 100 µM | BT-549 > 100 µM | SK-MEL-28 > 100 µM | MDA-N > 100 µM | UACC-62 > 100 µM | KM12 > 100 µM | NCI/ADR-RES > 100 µM | OVCAR-8 > 100 µM | K562 > 100 µM
